From patent US20240279232A1, “USE OF SUBSTITUTED 5-(4-METHYL-6-PHENYL-4H-BENZO[F]IMIDAZO[1,5-A][1,4] DIAZEPIN-3-YL)-1,2,4-O[…] THE TREATMENT OF INFLAMMATORY CONDITIONS” (priority 2021, published 2024) come the findings set out here.

The target of one data set is T1, KOR (κ opioid receptor) (Homo sapiens, UniProt P41145).
T1 construct: expressed in transfected cells; host or cells: HEK293 (stably transfected)
As to the kind of experiment: KOR radioligand binding ([3H]-U69593, HEK293 cell homogenates). The settings on record: for inhibition at 10 µM: Percent inhibition at 10,000 nM.

For a further data set, the system named is Swiss Webster mice. As to the kind of experiment: Rotarod test. The settings on record: for sensorimotor deficits on the rotarod: p.o. at 4-fold the effective dose in the formalin test.
In the next data set the target is α3β3γ2 GABAAR (Homo sapiens, UniProt P18507+P34903). As to the kind of experiment: Membrane potential red dye assay. The data set is classed as cell-based. The protocol:
To determine the affinity of MP-IV-010 for these receptors, concentration dependent assays were carried out as depicted in FIG. 4A-4C.

Another data set deals with 5-HT1A (Homo sapiens, UniProt P08908). As to the kind of experiment: PDSP primary binding 5-HT1A. The settings on record: PDSP primary screening. The protocol: (§1) Because reduction of NO could not be reversed by GABAAR antagonists, the possible binding of MP-IV-010 to other cellular receptors was evaluated in collaboration with the NIMH Psychoactive Drug Screening Program.
(§2) Psychoactive Drug Screening Program. Detailed protocols for the primary and secondary radioligand binding assays can be found in the National Institute of Mental Health's Psychoactive Drug Screening Program (NIMH PDSP) Assay Protocol Book. Briefly, primary and secondary radioligand binding assays are carried out in a final of volume of 125 μL per well in appropriate binding buffer. The radioactive ligand concentration is close to the Kd. Total binding and nonspecific binding are determined in the absence and presence of 10 μM of appropriate reference compound, respectively. In brief, plates are usually incubated at room temperature and in the dark for 90 min. Reactions are stopped by vacuum filtration onto 0.3% polyethyleneimine (PEI) soaked 96-well filter mats using a 96-well Filtermate harvester, followed by three washes with cold PBS buffer. Scintillation cocktail is then melted onto the microwave-dried filters on a hot plate and radioactivity counted in a Microbeta counter. The data (n=6) were analyzed by nonlinear regression.

The target of a further data set is 5-HT1B (Homo sapiens, UniProt P28222). As to the kind of experiment: PDSP primary binding 5-HT1B. The settings on record: PDSP primary screening. How it is done:
as §1, §2

In another data set the target is 5-HT1E (Homo sapiens, UniProt P28566). As to the kind of experiment: PDSP primary binding 5-HT1E. The settings on record: PDSP primary screening. How it is done:
as §1, §2

A further data set addresses 5-HT5A (Homo sapiens, UniProt P47898). As to the kind of experiment: PDSP primary binding 5-HT5A. The settings on record: PDSP primary screening. How it is done: as §1, §2
In the next data set the target is 5-HT6 (Homo sapiens, UniProt P50406). As to the kind of experiment: PDSP primary binding 5-HT6. The settings on record: PDSP primary screening. The protocol: as §1, §2
Another data set addresses D1 (Homo sapiens, UniProt P21728). As to the kind of experiment: PDSP primary binding D1. The settings on record: PDSP primary screening. How it is done:
as §1, §2

A further data set deals with D4 (Homo sapiens, UniProt P21917). As to the kind of experiment: PDSP primary binding D4. The settings on record: PDSP primary screening. The protocol:
as §1, §2

The target in the next data set is D5 (Homo sapiens, UniProt P21918). As to the kind of experiment: PDSP primary binding D5. The settings on record: PDSP primary screening. How it is done:
as §1, §2

The target of the next data set is NET (Homo sapiens, UniProt P23975). As to the kind of experiment: PDSP primary binding NET. The settings on record: PDSP primary screening. The protocol:
as §1, §2

The test system of the next data set is GABAA. As to the kind of experiment: PDSP primary binding GABAA. The settings on record: PDSP primary screening. How it is done:
as §1, §2

In a further data set the target is H1 (Homo sapiens, UniProt P35367). As to the kind of experiment: PDSP primary binding H1. The settings on record: PDSP primary screening. How it is done: as §1, §2
For the next data set, the target named is H2 (Homo sapiens, UniProt P25021). As to the kind of experiment: PDSP primary binding H2. The settings on record: PDSP primary screening. The protocol:
as §1, §2

The next data set concerns the target H3 (Homo sapiens, UniProt Q9Y5N1). As to the kind of experiment: PDSP primary binding H3. The settings on record: PDSP primary screening. How it is done:
as §1, §2

The subject of a further data set is Calcium Channel. As to the kind of experiment: PDSP primary binding Calcium Channel. The settings on record: PDSP primary screening. How it is done:
as §1, §2

In the next data set the target is Alpha1B (Homo sapiens, UniProt P35368). As to the kind of experiment: PDSP primary binding Alpha1B. The settings on record: PDSP primary screening. The protocol: as §1, §2
The next data set addresses Alpha2C (Homo sapiens, UniProt P18825). As to the kind of experiment: PDSP primary binding Alpha2C. The settings on record: PDSP primary screening. The protocol: as §1, §2
In a further data set the target is M1 (Homo sapiens, UniProt P11229). As to the kind of experiment: PDSP primary binding M1. The settings on record: PDSP primary screening. How it is done:
as §1, §2

A further data set has as its target Beta3 (Homo sapiens, UniProt P13945). As to the kind of experiment: PDSP primary binding Beta3. The settings on record: PDSP primary screening. The protocol: as §1, §2
The next data set addresses PBR (Rattus norvegicus, UniProt P16257). As to the kind of experiment: PDSP primary binding PBR. The settings on record: PDSP primary screening. How it is done: as §1, §2
Another data set concerns the target Alpha1D (Homo sapiens, UniProt P25100). As to the kind of experiment: PDSP primary binding Alpha1D. The settings on record: PDSP primary screening. The protocol: as §1, §2
Setting [1] is: concentration-dependent, [3H]-U69593, read-out: KOR (Ki).

Structures are written as SMILES. Like-named read-outs stand apart in the source and are kept apart here.

As for `CCOC(=O)c1ncn2c1[C@@H](C)N=C(c1ccccn1)c1cc(Br)ccc1-2` [GL-II-06], the inhibition at 10 µM at KOR (κ opioid receptor) ([3H]-U69593) is 79%. For the same compound, the Ki at KOR (κ opioid receptor) (setting [1]) turned out to be 401 nM.
On to `C[C@H]1N=C(c2ccccn2)c2cc(Br)ccc2-n2cnc(C(=O)O)c21` [GL-II-51], for which the inhibition at 10 µM at KOR (κ opioid receptor) ([3H]-U69593) was determined as 11%.
For the compound `C[C@H]1N=C(c2ccccc2F)c2cc(Br)ccc2-n2cnc(-c3cnco3)c21` [GL-III-36], the Ki on KOR (κ opioid receptor) is 246 nM. In addition, on KOR (κ opioid receptor) ([3H]-U69593), the inhibition at 10 µM worked out at 88%.
The matching figures for `CCOC(=O)c1ncn2c1[C@@H](C)N=C(c1ccccc1F)c1cc(C3CC3)ccc1-2` [GL-III-42]: 174 nM and 86%.
As to `C[C@H]1N=C(c2ccccc2F)c2cc(Cl)ccc2-n2cnc(C(=O)O)c21` [GL-III-54], the inhibition at 10 µM at KOR (κ opioid receptor) ([3H]-U69593) is 22%.
Regarding `Cc1noc(-c2ncn3c2[C@@H](C)N=C(c2ccccc2F)c2cc(Br)ccc2-3)n1` [GL-III-60, (R)-5-(8-Bromo-6-(2-fluorophenyl)-4-methyl-4H-benzo[f]imidazo[1,5-a][1,4]diazepin-3-yl)-3-methyl-1,2,4-oxadiazole], the Ki at KOR (κ opioid receptor) came out at 232 nM. In addition, the inhibition at 10 µM on KOR (κ opioid receptor) ([3H]-U69593) stood at 87%.
Take `Cc1noc(-c2ncn3c2[C@@H](C)N=C(c2ccccc2F)c2cc(C4CC4)ccc2-3)n1` [GL-III-63, (R)-5-(8-Cyclopropyl-6-(2-fluorophenyl)-4-methyl-4H-benzo[f]imidazo[1,5-a][1,4]diazepin-3-yl)-3-methyl-1,2,4-oxadiazole]: the Ki on KOR (κ opioid receptor) worked out at 678 nM. The inhibition at 10 µM on KOR (κ opioid receptor) ([3H]-U69593) came to 78%.
Turning to `C#Cc1ccc2c(c1)C(c1ccccc1F)=N[C@H](C)c1c(C(=O)NC(C)C)ncn1-2` [GL-III-66], the inhibition at 10 µM at KOR (κ opioid receptor) ([3H]-U69593) worked out at 63%. The Ki on KOR (κ opioid receptor) (setting [1]) was determined as 233 nM.
Take `CCNC(=O)c1ncn2c1[C@@H](C)N=C(c1ccccc1F)c1cc(C3CC3)ccc1-2` [GL-III-68]: on KOR (κ opioid receptor) ([3H]-U69593), the inhibition at 10 µM worked out at 88%.
As for `C[C@H]1N=C(c2ccccc2F)c2cc(Br)ccc2-n2cnc(C(=O)N(C)C)c21` [GL-III-69], at KOR (κ opioid receptor) ([3H]-U69593), the inhibition at 10 µM is 75%. The Ki on KOR (κ opioid receptor) (setting [1]) amounted to 511 nM.
For `C[C@H]1N=C(c2ccccc2F)c2cc(C3CC3)ccc2-n2cnc(C(=O)N(C)C)c21` [GL-III-70] the same measures were 68% and 800 nM.
With `C#Cc1ccc2c(c1)C(c1ccccc1F)=N[C@H](C)c1c(-c3cnco3)ncn1-2` [GL-III-73], the Ki on KOR (κ opioid receptor) turned out to be 449 nM. Also, the inhibition at 10 µM on KOR (κ opioid receptor) ([3H]-U69593) turned out to be 74%.
The matching figures for `C[C@@H]1N=C(c2ccccc2F)c2cc(Br)ccc2-n2cnc(-c3cnco3)c21` [GL-III-76]: 221 nM and 83%.
The matching figures for `C#Cc1ccc2c(c1)C(c1ccccc1F)=N[C@@H](C)c1c(-c3cnco3)ncn1-2` [GL-III-78]: 451 nM and 74%.
Regarding `CCc1noc(-c2ncn3c2[C@@H](C)N=C(c2ccccc2F)c2cc(C4CC4)ccc2-3)n1` [GL-IV-03, (R)-5-(8-Cyclopropyl-6-(2-fluorophenyl)-4-methyl-4H-benzo[f]imidazo[1,5-a][1,4]diazepin-3-yl)-3-ethyl-1,2,4-oxadiazole], the Ki on KOR (κ opioid receptor) was 232 nM. At KOR (κ opioid receptor) ([3H]-U69593), the inhibition at 10 µM is 91%. The “ability of mice to balance on a rotating rod for three minutes” value in the data set on Swiss Webster mice (intraperitoneal, 10 and 40 mg/kg) is “did not influence the ability of mice to balance”. For the same compound, the “sensorimotor deficits on the rotarod” value in the data set with Swiss Webster mice is recorded as “did not cause any sensorimotor deficits”.
As to `C#Cc1ccc2c(c1)C(c1ccccc1F)=N[C@H](C)c1c(C(=O)NC)ncn1-2` [MP-III-022], the inhibition at 10 µM on KOR (κ opioid receptor) ([3H]-U69593) is 80%. Moreover, the Ki at KOR (κ opioid receptor) (setting [1]) came to 381 nM.
On to `C#Cc1ccc2c(c1)C(c1ccccc1F)=N[C@H](C)c1c(-c3nc(C)no3)ncn1-2` [MP-IV-004], for which the Ki at KOR (κ opioid receptor) stood at 444 nM. On KOR (κ opioid receptor) ([3H]-U69593), the inhibition at 10 µM was 86%.
In the case of `C#Cc1ccc2c(c1)C(c1ccccc1F)=N[C@H](C)c1c(-c3nc(C(C)C)no3)ncn1-2` [MP-IV-010, (R)-5-(8-ethynyl-6-(2-fluorophenyl)-4-methyl-4H-benzo[f]imidazo[1,5-a][1,4]diazepin-3-yl)-3-isopropyl-1,2,4-oxadiazole], on KOR (κ opioid receptor), the IC50 was found to be 351 nM and the Ki was found to be 145 nM. For the same compound, the “Percent Competition KOR” value on KOR (κ opioid receptor) (PDSP primary screening) was found to be 94%. Moreover, at KOR (κ opioid receptor) ([3H]-U69593), the inhibition at 10 µM was determined as 94%. The compound further returned an EC50 at α3β3γ2 GABAAR of 14300 nM. Moreover, the “Percent Competition 5-HT1A” value on 5-HT1A was 19%. At 5-HT1B, the “Percent Competition 5-HT1B” value amounted to 29%. Besides, the “Percent Competition 5-HT1E” value at 5-HT1E was −7%. Besides, the “Percent Competition 5-HT5A” value at 5-HT5A is given as 11%. Moreover, the “Percent Competition 5-HT6” value on 5-HT6 is recorded as 21%. For the same compound, the “Percent Competition D1” value at D1 amounted to 28%. Also, the “Percent Competition D4” value on D4 is 5%. The “Percent Competition D5” value on D5 is reported as 29%. Besides, the “Percent Competition NET” value on NET was −2%. The “Percent Competition GABAA” value in the data set with GABAA is listed as −8%. In addition, the “Percent Competition H1” value on H1 is reported as 19%. Besides, the “Percent Competition H2” value on H2 was 28%. Also, on H3, the “Percent Competition H3” value was −18%. In addition, the “Percent Competition Calcium Channel” value with Calcium Channel came out at 15%. Moreover, the “Percent Competition Alpha1B” value on Alpha1B is given as 15%. Also, the “Percent Competition Alpha2C” value at Alpha2C is listed as 31%. Further, the “Percent Competition M1” value on M1 is given as −11%. For the same compound, on Beta3, the “Percent Competition Beta3” value came out at 38%. Further, the “Percent Competition PBR” value on PBR was 28%. Besides, at Alpha1D, the “Percent Competition Alpha1D” value came to 9%. In the data set with Swiss Webster mice, the “sensorimotor deficits on the rotarod” value is reported as “did not cause any sensorimotor deficits”.
